Experimental data: patent US8404688B2, “Nitrone compounds, process of preparation thereof, and use thereof in medicament manufacture” (Jinan University, priority 2008, dated 2013)

Assays:
[1] = intravenous injection, rat; Sheu et al. 1997; cited from earlier work
thrombosis = conditions: rat arterio- and phlebo-thrombosis models; Liu and Sylvester 1990; cited from earlier work
cerebral ischemia = conditions: rat 2-h MCA occlusion by intraluminal suture; Ley et al.; cited from earlier work
cortical neuronal cells = assay: Protection of cortical neuronal cells from H2O2-induced oxidative damage (MTT); type: cell-based; conditions: cortical neurons, FIG. 4
Description: Cortical neurons (9×10^4 cells/well) were placed into 96-well cell culture plates, and were incubated at 37° C. for 24 h under 5% CO2. The medium was changed, and the cells were incubated for another 12 h. Drugs at different concentrations were added, and the cells were incubated at 37° C. for 30 min. Hydrogen peroxide were then added, and the cells were incubated for 24 h at 37° C. for 24 h under 5% CO2. A solution of 3-(4,5-dimethylthiazol-2-ly)-2,5-diphenyl-tetrazoliun bromide (MTT) was added, and the cells were incubated for another 4 h before DMSO was added. After the crystals were completely dissolved (30 min), the absorbance was read at 570 nm with a spectrophotometer (Bio-Rad Model 680, Japan). The results were expressed as the percentage of the control (saline group).

Cortical neurons = assay: Protection of neuronal cells from NMDA excitotoxic damage; type: cell-based; conditions: drug 1-1000 μM, NMDA 100 μM, 24 h, FIG. 5
Description: Cortical neurons (9×10^4 cells/well) were placed into 96-well cell culture plates, and were incubated at 37° C. for 24 h under 5% CO2. The medium was changed, and the cells were incubated for another 12 h. Drugs at different concentrations 1000 μM, 100 μM, 10 μM, 1 μM) were added, and the cells were incubated at 37° C. for 30 min. NMDA (15 μL) was then added (final concentration of NMDA is 100 μM), and the cells were incubated for 24 h at 37° C. for 24 h under 5% CO2.

MCAo rat stroke model = assay: Protection of stroke in MCAo rats (infarct area, TTC staining); type: in vivo; conditions: TBN 80 mg/kg i.p. 1 h after occlusion; 2 h ischemia, 24 h reperfusion; FIG. 6
Description: Female Sprague-Dawley rats (210-240 g) were anesthetized with 10% chloral hydrate (400 mg/kg) i.p. The right common carotid artery (CCA) was carefully exposed. The occipital branch of the external carotid artery (ECA) was coagulated and the internal carotid artery (ICA) was isolated. A poly-L-lysine-coated nylon suture (0.32 mm in diameter) was inserted into the ECA and advanced retrogradely until the bifurcation of the CCA from where it was advanced a distance of approximately 18-20 mm into the ICA to occlude the MCA. A ligature was tied around the ICA, the incisions were closed, and the animal was extubated.
TMP (50 mg/kg), TBN (80 mg/kg), PBN (65 mg/kg), Eda (62 mg/kg) and saline were administered i.p. 1 h after MAC occlusion, respectively. After 2 h of MCA occlusion, the suture was withdrawn to allow reperfusion. After 24 h of reperfusion, the animals were re-anesthetized with 10% chloral hydrate (400 mg/kg) i.p., and were then decapitated. The brain was quickly removed, rinsed with PBS, and stored in a refrigerator at −20° C. until it was frozen. The brain was sliced with a blade at every 2-mm from the frontal pole, and the slices were stained with 2,3,5-triphenyltetrazolium chloride (TTC, 0.5% in normal saline) for 30 min at 37° C. […] The area of infarction was quantified by the Osiris 4 software, and the results were expressed as the percentage of the total brain section area.

thrombus = assay: Thrombolytic activity in rats (inferior vena cava ligation, dried thrombus weight); type: in vivo; conditions: TBN 3.25 mg/kg i.v.; rat; FIG. 7
Description: The abdomen was then closed. Drugs were administered 2 h after ligation i.v. via the dorsal tail vein. The abdomen was reopened after […] of ligation. The thrombus was removed and dried at 50° C. for 24 h. The dried thrombus was weighted.

MCA occlusion = conditions: male Wistar rats, 2 hour MCA occlusion, given 1 hour after recirculation; at 48 hours and 7 days; Kuroda et al. 1999; cited from earlier work
[2] = system: permanent middle cerebral occlusion; conditions: monkeys, Marshall et al. 2001; cited from earlier work

## Cc1nc(C)c(C)nc1C [TMP, tetramethylpyrazine]
[1]
  prolongation of bleeding time: 1.5 times
thrombosis
  thrombolytic activity: showed thrombolytic activity

## stilbazulenyl nitrone [STAZN]
Cerebral ischemia
  neurological deficits compared with vehicle controls: improved neurological deficits

## Cc1nc(C)c(/C=[N+](\[O-])C(C)(C)C)nc1C [TBN, 2-[[(1,1-Dimethylethyl)oxidoimino]methyl]-3,5,6-trimethylpyrazine]
Cortical neuronal cells; H2O2, MTT
  effectiveness relative to Eda in protecting cortical neuronal cells from H2O2-induced damage: approximately 10 fold
Cortical neuronal cells; drug 30 min before H2O2, 24 h, MTT
  protection of cortical neuronal cells from H2O2-induced damage, compared with TMP and PBN: more effective than either TMP or PBN
Cortical neurons
  protection of neuronal cells from NMDA toxicity: significantly protected
MCAo rat stroke model
  protective effect in MCAo rat stroke model (area of infarction): significant protective effects
thrombus
  thrombolytic activity (dried thrombus weight): significant thrombolytic activity

## CC(C)(C)[N+]([O-])=Cc1ccc(S(=O)(=O)[O-])cc1S(=O)(=O)[O-].[Na+].[Na+] [NXY-059, disodium 4-[(tert-butylimino)methyl]benzene-1,3-disulfonate N-oxide]
MCA occlusion
  infarct volume: significantly reduced infarct volume
[2]
  reduction of overall amount of brain damage vs saline-treated control: > 50%
